biological target: T1, human CCR6 (Homo sapiens, UniProt P51684); test: Migration (chemotaxis) assay, hCCR6-transfected Ba/F3 cells toward CCL20; type: cell-based; details: hCCR6-transfected Ba/F3 cells in human serum; recombinant human CCL20 10 nM; 37° C. 45 minutes; read-out: Potency (IC50 value in the migration assay)
T1 construct: expressed in transfected cells; host or cells: Ba/F3 cells (murine pro-B line), hCCR6-transfected, CMV promoter, sodium butyrate induction
T1 sequence (P51684 1-374): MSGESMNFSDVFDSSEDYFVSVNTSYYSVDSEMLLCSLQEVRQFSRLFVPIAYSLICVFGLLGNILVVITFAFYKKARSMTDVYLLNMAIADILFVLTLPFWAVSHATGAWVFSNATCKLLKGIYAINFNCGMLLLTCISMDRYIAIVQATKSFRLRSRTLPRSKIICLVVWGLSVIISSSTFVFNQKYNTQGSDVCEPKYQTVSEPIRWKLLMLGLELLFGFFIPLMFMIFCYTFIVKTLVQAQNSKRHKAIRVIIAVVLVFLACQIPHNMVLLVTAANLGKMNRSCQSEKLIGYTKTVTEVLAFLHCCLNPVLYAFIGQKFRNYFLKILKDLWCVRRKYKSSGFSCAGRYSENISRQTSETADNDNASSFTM
Description: A chemotaxis assay can be used to determine the efficacy of potential receptor antagonists at blocking the migration mediated through chemokine receptors, such as CCR6. This assay is routinely performed using the ChemoTX® microchamber system with a 5-μm pore-sized polycarbonate membrane. Chemokine receptor-expressing cells are required for such an assay. In this case, Ba/F3 cells (Palacios et al., Nature, 309:126, 1984) transfected with the gene for human CCR6 under control of the CMV promotor were used. To begin such an assay, hCCR6-transfected Ba/F3 cells are first grown for 24 hr in medium supplemented with sodium butyrate, which increases CCR6 transcription via the CMV promotor. The prepared Ba/F3 cells, are collected by centrifugation at 400×g at room temperature, then suspended at 4 million/ml in human serum. The compound being tested is serially diluted from a maximum final concentration of 10 μM (or an equivalent volume of its solvent (DMSO)) and is then added to the cell/serum mixture. Separately, recombinant human CCL20 (MIP-3α/LARC) at its EC50 concentration (10 nM) is placed in the lower wells of the ChemoTX® plate. The 5-μm (pore size) polycarbonate membrane is placed onto the plate, and 20 μL of the cell/compound mixture is transferred onto each well of the membrane. The plates are incubated at 37° C. for 45 minutes, after which the polycarbonate membranes are removed and 5 μl of the DNA-intercalating dye CyQUANT (Invitrogen, Carlsbad, CA) is added to the lower wells. The amount of fluorescence, corresponding to the number of migrated cells, is measured using a Spectrafluor Plus plate reader (TECAN, San Jose, CA).

Row | SMILES | IC50
1 | NC(=O)N1CCC2(CC1)C(=O)Nc1ccc(-c3ccc(S(=O)(=O)N4CCC(Nc5ccc(C(F)(F)F)cn5)CC4)cc3)cc12 [Example 1.025] | 5 to 100 nM
2 | Nc1nc(=O)c2cc(-c3ccc(S(=O)(=O)N4CCC(Nc5ccc(C(F)(F)F)cn5)CC4)cc3)ccc2[nH]1 [Example 1.015] | < 5 nM
3 | O=C(CC1CCN(c2ccc(S(=O)(=O)N3CCC(Nc4ccc(C(F)(F)F)cn4)CC3)cc2)CC1)NCCO [Example 1.133] | 100 to 10000 nM
4 | O=C1Cc2cc(-c3ccc(S(=O)(=O)N4CCC(Nc5ccc(C(F)(F)F)cn5)CC4)cc3)cnc2N1 [Example 1.073] | < 5 nM
5 | CC1(C)Oc2ccc(-c3ccc(S(=O)(=O)N4CCC(Nc5ccc(C(F)(F)F)cn5)CC4)cc3)cc2NC1=O [Example 1.031] | 5 to 100 nM
6 | N#Cc1n[nH]c2ccc(-c3ccc(S(=O)(=O)[C@H]4CC[C@H](Nc5ccc(C(F)(F)F)cn5)CC4)cc3)cc12 [Example 1.072] | < 5 nM
7 | O=S(=O)(c1ccc(-c2ccc3c(c2)CNC3)cc1)N1CCC(Nc2ccc(C(F)(F)F)cn2)CC1 [Example 1.058] | 100 to 10000 nM
8 | Cc1c(-c2ccc(S(=O)(=O)N3CCC(Nc4ccc(C(F)(F)F)cn4)CC3)cc2)cnc2[nH]ccc12 [Example 1.023] | < 5 nM
9 | Cc1nc2cc(-c3ccc(S(=O)(=O)N4CCC(Nc5ccc(C(F)(F)F)cn5)CC4)cc3)ccc2[nH]1 [Example 1.092] | 5 to 100 nM
10 | N#Cc1c[nH]c2cc(-c3ccc(S(=O)(=O)N4CCC(Nc5ccc(C(F)(F)F)cn5)CC4)cc3)ccc12 [Example 1.101] | 5 to 100 nM
11 | NC(=O)C1CC2(C1)CN(c1ccc(S(=O)(=O)N3CCC(Nc4ccc(C(F)(F)F)cn4)CC3)cc1)C2 [Example 1.121] | 5 to 100 nM
12 | COc1cc(-c2ccc(S(=O)(=O)N3CCC(Nc4ccc(C(F)(F)F)cn4)CC3)cc2)cc2c1NC(=O)C2 [Example 1.045] | 5 to 100 nM
13 | O=C1Cc2ncc(-c3ccc(S(=O)(=O)N4CCC(Nc5ccc(C(F)(F)F)cn5)CC4)cc3)cc2N1 [Example 1.022] | 5 to 100 nM
14 | NC(=O)N1CCc2nc(-c3ccc(S(=O)(=O)N4CCC(Nc5ccc(C(F)(F)F)cn5)CC4)cc3)sc2C1 [Example 1.102] | 100 to 10000 nM
15 | NCCN1C(=O)C2(CC2)c2cc(-c3ccc(S(=O)(=O)N4CCC(Nc5ccc(C(F)(F)F)cn5)CC4)cc3)cnc21 [Example 1.002] | 5 to 100 nM
16 | Nc1n[nH]c2ccc(-c3ccc(S(=O)(=O)N4CCC(Nc5ccc(C(F)(F)F)cn5)CC4)cc3)cc12 [Example 1.112] | < 5 nM
17 | CC1(C)NC(=O)c2ncc(-c3ccc(S(=O)(=O)N4CCC(Nc5ccc(C(F)(F)F)cn5)CC4)cc3)cc21 [Example 1.009] | < 5 nM
18 | Cc1nc2[nH]ccc2cc1-c1ccc(S(=O)(=O)N2CCC(Nc3ccc(C(F)(F)F)cn3)CC2)cc1 [Example 1.024] | < 5 nM
19 | NC(=O)c1cc2cc(-c3ccc(S(=O)(=O)N4CCC(Nc5ccc(C(F)(F)F)cn5)CC4)cc3)ccc2[nH]1 [Example 1.098] | 5 to 100 nM
20 | Nc1n[nH]c2ncc(-c3ccc(S(=O)(=O)N4CCC(Nc5ccc(C(F)(F)F)cn5)CC4)cc3)cc12 [Example 1.068] | < 5 nM

Row | SMILES | IC50
21 | O=S(=O)(c1ccc(-c2ccc3[nH]ccc3c2)cc1)N1CCC(Nc2ccc(C(F)(F)F)cn2)CC1 [Example 1.119] | 100 to 10000 nM
22 | O=S(=O)(c1ccc(-c2ccc3[nH]nnc3c2)cc1)N1CCC(Nc2ccc(C(F)(F)F)cn2)CC1 [Example 1.109] | 100 to 10000 nM
23 | CC(=O)NCCC1CCN(c2ccc(S(=O)(=O)N3CCC(Nc4ccc(C(F)(F)F)cn4)CC3)cc2)CC1 [Example 1.126] | 5 to 100 nM
24 | O=S(=O)(c1ccc(N2CCC(c3nnn[nH]3)CC2)cc1)N1CCC(Nc2ccc(C(F)(F)F)cn2)CC1 [Example 1.128] | 100 to 10000 nM
25 | O=S(=O)(c1ccc(N2CCC(O)CC2)cc1)N1CCC(Nc2ccc(C(F)(F)F)cn2)CC1 [Example 1.156] | 5 to 100 nM
26 | O=S(=O)(c1ccc(-c2ccc3[nH]cnc3c2)cc1)N1CCC(Nc2ccc(C(F)(F)F)cn2)CC1 [Example 1.110] | < 5 nM
27 | O=S(=O)(c1ccc(N2CCC(O)(CO)CC2)cc1)N1CCC(Nc2ccc(C(F)(F)F)cn2)CC1 [Example 1.168] | 5 to 100 nM
28 | Nc1nc2cc(-c3ccc(S(=O)(=O)N4CCC(Nc5ccc(C(F)(F)F)cn5)CC4)cc3)ccc2o1 [Example 1.118] | < 5 nM
29 | CN(C)c1n[nH]c2ccc(-c3ccc(S(=O)(=O)N4CCC(Nc5ccc(C(F)(F)F)cn5)CC4)cc3)cc12 [Example 1.069] | 5 to 100 nM
30 | N#Cc1c[nH]c2ncc(-c3ccc(S(=O)(=O)N4CCC(Nc5ccc(C(F)(F)F)cn5)CC4)cc3)cc12 [Example 1.088] | < 5 nM
31 | O=S(=O)(c1ccc(-c2cnc3[nH]ccc3c2)cc1)N1CCC(Nc2ccc(C(F)(F)F)cn2)CC1 [Example 1.089] | < 5 nM
32 | NC(=O)CC1CN(c2ccc(S(=O)(=O)N3CCC(Nc4ccc(C(F)(F)F)cn4)CC3)cc2)C1 [Example 1.144] | 100 to 10000 nM
33 | O=C1Cc2ccc(-c3ccc(S(=O)(=O)N4CCC(Nc5ccc(C(F)(F)F)cn5)CC4)cc3)cc2N1 [Example 1.084] | 5 to 100 nM
34 | Cc1n[nH]c2ccc(-c3ccc(S(=O)(=O)N4CCC(Nc5ccc(C(F)(F)F)cn5)CC4)cc3)cc12 [Example 1.094] | 5 to 100 nM
35 | N#Cc1cc2ccc(-c3ccc(S(=O)(=O)N4CCC(Nc5ccc(C(F)(F)F)cn5)CC4)cc3)cc2[nH]1 [Example 1.079] | 5 to 100 nM
36 | O=C1Cc2cc(-c3ccc(S(=O)(=O)N4CCC(Nc5ccc(C(F)(F)F)cn5)CC4)cc3)ncc2N1 [Example 1.043] | 100 to 10000 nM
37 | N=[S@](=O)(c1ccc(-c2ccc3oc(N)nc3c2)cc1)N1CCC(Nc2ccc(C(F)(F)F)cc2)CC1 [Example 1.105] | 5 to 100 nM
38 | O=c1[nH]c2cc(-c3ccc(S(=O)(=O)N4CCC(Nc5ccc(C(F)(F)F)cn5)CC4)cc3)ccc2o1 [Example 1.082] | 5 to 100 nM
39 | O=C1NC(=O)C2(CCN(c3ccc(S(=O)(=O)N4CCC(Nc5ccc(C(F)(F)F)cn5)CC4)cc3)CC2)N1 [Example 1.151] | < 5 nM

More lines, now with the values ahead:

Row | IC50 | SMILES
40 | 5 to 100 nM | NC(=O)N1CCN(c2ccc(S(=O)(=O)N3CCC(Nc4ccc(C(F)(F)F)cn4)CC3)cc2)CC1 [Example 1.204]
41 | 5 to 100 nM | CS(=O)(=O)N1CCCC(c2ccc(S(=O)(=O)N3CCC(Nc4ccc(C(F)(F)F)cn4)CC3)cc2)C1 (centres unmarked) [Example 1.179]
42 | 5 to 100 nM | CC(=O)N1CCN(c2ccc(S(=O)(=O)N3CCC(Nc4ccc(C(F)(F)F)cn4)CC3)cc2)CC1 [Example 1.226]
43 | 100 to 10000 nM | O=S1(=O)CCN(c2ccc(S(=O)(=O)N3CCC(Nc4ccc(C(F)(F)F)cn4)CC3)cc2)CC1 [Example 1.231]
44 | 5 to 100 nM | NC(=O)N1CCCC(c2ccc(S(=O)(=O)N3CCC(Nc4ccc(C(F)(F)F)cn4)CC3)cc2)C1 (centres unmarked) [Example 1.215]
45 | 5 to 100 nM | O=C1NC(=O)N2CCN(c3ccc(S(=O)(=O)N4CCC(Nc5ccc(C(F)(F)F)cn5)CC4)cc3)CC12 (centres unmarked) [Example 1.177]
46 | 100 to 10000 nM | CC(=O)N[C@H]1CCCN(c2ccc(S(=O)(=O)N3CCC(Nc4ccc(C(F)(F)F)cn4)CC3)cc2)C1 [Example 1.193]
47 | 100 to 10000 nM | O=S(=O)(c1ccc(N2CCC(O)CC2)c(F)c1)N1CCC(Nc2ccc(C(F)(F)F)cn2)CC1 [Example 1.208]
48 | 100 to 10000 nM | CN1CCN(c2ccc(S(=O)(=O)N3CCC(Nc4ccc(C(F)(F)F)cn4)CC3)cc2)CC1 [Example 1.232]
49 | 100 to 10000 nM | O=S(=O)(c1ccc(N2CC[C@@H](O)C2)cc1)N1CCC(Nc2ccc(C(F)(F)F)cn2)CC1 [Example 1.186]
50 | 5 to 100 nM | NC(=O)NC1CCN(c2ccc(S(=O)(=O)N3CCC(Nc4ccc(C(F)(F)F)cn4)CC3)cc2)CC1 [Example 1.205]
51 | 5 to 100 nM | CC(=O)N1CCCC(c2ccc(S(=O)(=O)N3CCC(Nc4ccc(C(F)(F)F)cn4)CC3)cc2)C1 (centres unmarked) [Example 1.183]
52 | 5 to 100 nM | O=S(=O)(c1ccc(N2CC3(CC(O)C3)C2)cc1)N1CCC(Nc2ccc(C(F)(F)F)cn2)CC1 [Example 1.187]
53 | 100 to 10000 nM | CC(C)(C)OC(=O)N[C@@H]1CCCN(c2ccc(S(=O)(=O)N3CCC(Nc4ccc(C(F)(F)F)cn4)CC3)cc2)C1 [Example 1.213]
54 | 100 to 10000 nM | O=S(=O)(c1ccc(N2CC[C@H](O)C2)cc1)N1CCC(Nc2ccc(C(F)(F)F)cn2)CC1 [Example 1.197]
55 | 5 to 100 nM | O=S(=O)(c1ccc(N2CCC(CO)CC2)cc1)N1CCC(Nc2ccc(C(F)(F)F)cn2)CC1 [Example 1.188]
56 | 100 to 10000 nM | CC(C)(C)OC(=O)N[C@@H]1CCN(c2ccc(S(=O)(=O)N3CCC(Nc4ccc(C(F)(F)F)cn4)CC3)cc2)C1 [Example 1.212]
